From patent US20060263802A1 (priority 2003, published 2006)

Key:
Type in all cases: binding
[1] = system: human monoclonal antibody CRJB
[2] = system: human monoclonal antibody CR57
[3] = system: human monoclonal antibody CRJA
[4] = system: human monoclonal antibody CRJB; remark: listed apart in the source
[5] = system: human monoclonal antibody CR57; remark: listed apart in the source
[6] = system: human monoclonal antibody CRJA; remark: listed apart in the source

Row | Sequence | Binding of CRJB to linear peptide (PEPSCAN-ELISA signal) [1] | Binding of CR57 to linear peptide (PEPSCAN-ELISA signal) [2] | Binding of CRJA to linear peptide (PEPSCAN-ELISA signal) [3] | Binding of CRJB (10 μg/ml) to looped/cyclic peptide (PEPSCAN-ELISA signal) [4] | Binding of CR57 (10 μg/ml) to looped/cyclic peptide (PEPSCAN-ELISA signal) [5] | Binding of CRJA (10 μg/ml) to looped/cyclic peptide (PEPSCAN-ELISA signal) [6] | Binding of CRJB (10 μg/ml) to looped/cyclic peptide (PEPSCAN-ELISA) [4] | Binding of CR57 (10 μg/ml) to looped/cyclic peptide (PEPSCAN-ELISA) [5] | Binding of CRJA (10 μg/ml) to looped/cyclic peptide (PEPSCAN-ELISA) [6]
1 | VGYVTTTFKRKHFRP | 113 | 75 | 80 | 85 | 117 | 100 |  |  | 
2 | KVGYILAIKMNGFTC | 118 | 78 | 83 | 64 | 96 | 71 |  |  | 
3 | NGIILGPDGNVLIPE | 146 | 102 | 89 |  |  |  | 85 | 104 | 85
4 | VRKREECLDALESIM | 181 | 58 | 111 |  |  |  | 66 | 105 | 101
5 | LKVGYILAIKMNGFT | 112 | 78 | 68 | 74 | 58 | 76 |  |  | 
6 | TKSVSFRRLSHLRKL | 125 | 83 | 103 |  |  |  | 94 | 88 | 91
7 | TVKTTKESLVIISPS | 116 | 76 | 93 | 55 | 94 | 92 |  |  | 
8 | QTSNETKWCPPDQLV | 120 | 92 | 90 |  |  |  | 62 | 118 | 106
9 | ILAIKMNGFTCTGVV | 103 | 79 | 87 | 72 | 77 | 45 |  |  | 
10 | LSGFSYMELKVGYIL | 132 | 71 | 82 | 74 | 72 | 83 |  |  | 
11 | TGVVTEAENYTNFVG | 110 | 85 | 86 | 69 | 92 | 96 |  |  | 
12 | DPRYEESLHNPYPDY | 110 | 57 | 92 | 65 | 76 | 91 |  |  | 
13 | SVRTWNEILPSKGCL | 138 | 106 | 123 |  |  |  | 147 | 151 | 165
14 | LPSKGCLRVGGRCHP | 119 | 77 | 58 |  |  |  | 85 | 80 | 52
15 | EELVRKREECLDALE | 112 | 69 | 118 |  |  |  | 2 | 79 | 104
